From patent US20230158001A1, “PHARMACEUTICAL COMPOSITION COMPRISING BENZIMIDAZOLE DERIVATIVE COMPOUND” (HK INNO.N CORPORATION, priority 2020, published 2023)
Blank lines part the entries; values can stand above or below the compound they belong to.

Key:
[1] = Pharmacokinetic interaction of tegoprazan and aceclofenac, alone or in combination (Cohort 2); details: for effect of co-administration on pharmacokinetic properties: co-administration of tegoprazan and aceclofenac compared with administration alone; for Css,max, Geometric LS Mean: 7 days, N = 16
Procedure: (§1) The pharmacokinetic interactions of tegoprazan and aceclofenac when administered alone or in combination were evaluated in healthy adult males.

clinical = test: clinical; set-up: dose or concentration left out as unconfirmed
Procedure: as §1

[2] = Pharmacokinetic interaction of tegoprazan and celecoxib, alone or in combination (Cohort 3); details: for Css,max, Geometric LS Mean: 7 days, N = 13; for effect of co-administration on pharmacokinetic properties: co-administration of tegoprazan and celecoxib compared with administration alone; for AUC: male, human, in vivo
[3] = Pharmacokinetic interaction of tegoprazan and naproxen, alone or in combination (Cohort 1); type: in vivo, human (healthy adult males); details: for effect of co-administration on pharmacokinetic properties: co-administration of tegoprazan and naproxen compared with administration alone
[4] = system: naproxen-induced peptic ulcer model; test: Anti-ulcer activity in animal model of acute peptic ulcer induced by naproxen; type: in vivo, SD rat; details: for ED50: Rattus norvegicus, read-out: ED50 (anti-ulcer efficacy)
Procedure: Specifically, each of tegoprazan (0.1 to 10 mg/kg) and esomeprazole (0.3 to 30 mg/kg) was orally administered to each SD rat that has fasted for 72 hours.

[5] = tegoprazan, Treatment A: 50 mg tegoprazan alone once a day
[6] = tegoprazan, co-administered with aceclofenac vs alone
[7] = tegoprazan, co-administered with celecoxib vs alone
[8] = tegoprazan, co-administered with naproxen vs alone

SMILES: Cc1ccc(-c2cc(C(F)(F)F)nn2-c2ccc(S(N)(=O)=O)cc2)cc1 [Celecoxib, celecoxib, reference compound]
Css,max, Geometric LS Mean ([2]; celecoxib, Treatment F: 200 mg celecoxib alone twice a day): 1140 ng/mL
Css,max, Geometric LS Mean ([2]; celecoxib, Treatment G: 50 mg tegoprazan once a day + 200 mg celecoxib twice a day): 1350 ng/mL
effect of co-administration on pharmacokinetic properties [2]: does not affect the pharmacokinetic properties
AUC ([2]; 200 mg): 7800 ng·h/mL

SMILES: COc1ccc2nc([S@@+]([O-])Cc3ncc(C)c(OC)c3C)[nH]c2c1 [esomeprazole, reference compound]
ED50 [4]: 4.12 mg/kg

Now from value to compound, other results behind:

AUC (clinical): 20100 ng·h/mL
SMILES: O=C(O)COC(=O)Cc1ccccc1Nc1c(Cl)cccc1Cl [Aceclofenac, aceclofenac, reference compound]
effect of co-administration on pharmacokinetic properties [1]: does not affect the pharmacokinetic properties

Css,max, Geometric LS Mean ([3]; naproxen, Treatment B: 500 mg naproxen alone twice a day, 7 days, N = 17): 92.34 ng/mL
Css,max, Geometric LS Mean ([3]; naproxen, Treatment C: 50 mg tegoprazan once a day + 500 mg naproxen twice a day, 7 days, N = 17): 95.60 ng/mL
SMILES: COc1ccc2cc([C@H](C)C(=O)O)ccc2c1 [Naproxen, naproxen, reference compound]
effect of co-administration on pharmacokinetic properties [3]: does not affect the pharmacokinetic properties

AUC ([1]; male, human, in vivo, 50 mg): 2680 ng·h/mL
Css,max, Geometric LS Mean [1, 5]: 562.13 ng/mL
Css,max, Geometric LS Mean ([1]; tegoprazan, Treatment E: 50 mg tegoprazan once a day + 100 mg aceclofenac twice a day): 529.98 ng/mL
AUCτ, Geometric LS Mean Ratio (Treatment E/Treatment A), Point Estimate [1, 6]: 1.0269
Css,max, Geometric LS Mean Ratio (Treatment E/Treatment A), Point Estimate [1, 6]: 0.9428
AUC ([2]; 50 mg): 2990 ng·h/mL
Css,max, Geometric LS Mean [2, 5]: 663.83 ng/mL
Css,max, Geometric LS Mean ([2]; tegoprazan, Treatment G: 50 mg tegoprazan once a day + 200 mg celecoxib twice a day): 676.24 ng/mL
AUCτ, Geometric LS Mean Ratio (Treatment G/Treatment A), Point Estimate [2, 7]: 1.0111
Css,max, Geometric LS Mean Ratio (Treatment G/Treatment A), Point Estimate [2, 7]: 1.0187
AUC ([3]; male, human, in vivo, tegoprazan, Treatment A: 50 mg tegoprazan alone once a day, 7 days, N = 17, read-out: AUCτ, Geometric LS Mean): 2650 ng·h/mL
Css,max, Geometric LS Mean ([3]; tegoprazan, Treatment A: 50 mg tegoprazan alone once a day, 7 days, N = 17): 512.79 ng/mL
Css,max, Geometric LS Mean ([3]; tegoprazan, Treatment C: 50 mg tegoprazan once a day + 500 mg naproxen twice a day, 7 days, N = 17): 505.59 ng/mL
AUCτ, Geometric LS Mean Ratio (Treatment C/Treatment A), Point Estimate [3, 8]: 1.0105
Css,max, Geometric LS Mean Ratio (Treatment C/Treatment A), Point Estimate [3, 8]: 0.9859
SMILES: Cc1nc2cc(C(=O)N(C)C)cc(O[C@H]3CCOc4cc(F)cc(F)c43)c2[nH]1 [Tegoprazan, (S)-4-(5,7-difluorochroman-4-yloxy)-N,N,2-trimethyl-1H-benzo[d]imidazole-6-carboxamide]
effect of co-administration on pharmacokinetic properties [1]: does not affect the pharmacokinetic properties
effect of co-administration on pharmacokinetic properties [2]: does not affect the pharmacokinetic properties
effect of co-administration on pharmacokinetic properties [3]: does not affect the pharmacokinetic properties
ED50 [4]: 0.123 mg/kg
anti-ulcer activity ([4]; naproxen-induced peptic ulcer model, SD rats, oral 0.1 to 10 mg/kg): excellent anti-ulcer activity
